From ChEMBL document CHEMBL3046936, “In vitro inhibition studies of phytoene desaturase by bleaching ketomorpholine derivatives” (J Agric Food Chem, 2001)
Calls of active or inactive are those of the source. The rule behind the calls is not given here.

Experiments:
Senna obtusifolia = assay: Preemergence herbicidal activity against Senna obtusifolia (sicklepod) after 20 days; format: functional
Chenopodium album = assay: Pre-emergence herbicidal activity against Chenopodium album after 20 days; format: functional
Amaranthus retroflexus = assay: Pre-emergence herbicidal activity against Amaranthus retroflexus after 20 days; format: functional
Abutilon theophrasti = assay: Preemergence herbicidal activity against Abutilon theophrasti (velvetleaf) after 20 days; format: functional
Xanthium strumarium = assay: Pre-emergence herbicidal activity against Xanthium strumarium (cocklebur) after 20 days; format: functional
Ipomoea hederacea = assay: Pre-emergence herbicidal activity against Ipomoea hederacea (ivy-leaved morning glory) after 20 days; format: functional
Galium aparine = assay: Pre-emergence herbicidal activity against Galium aparine after 20 days; format: functional
[1] = biological target: 15-cis-phytoene desaturase (Synechococcus elongatus (strain PCC 7942) (Anacystis nidulans R2), UniProt P26294); assay: Inhibition of Synechococcus PCC 7942 phytoene desaturase expressed in Escherichia coli JM 101 by HPLC analysis; conditions: read-out: I50
[2] = biological target: 15-cis-phytoene desaturase (Synechococcus elongatus (strain PCC 7942) (Anacystis nidulans R2)) (UniProt P26294); assay: Non-competitive inhibition of Synechococcus PCC 7942 phytoene desaturase expressed in Escherichia coli JM 101 by Lineweaver-Burk plot analysis
[3] = biological target: 15-cis-phytoene desaturase (Synechococcus elongatus (strain PCC 7942) (Anacystis nidulans R2)) (UniProt P26294); assay: Inhibition of Synechococcus PCC 7942 phytoene desaturase expressed in Escherichia coli JM 101 assessed as decrease in zeta-carotene content by HPLC analysis
[4] = Ratio of ED50 for Xanthium strumarium to ED50 for Chenopodium album; format: functional
[5] = Ratio of ED50 for Xanthium strumarium to ED50 for Galium aparine; format: functional
[6] = Ratio of ED50 for Xanthium strumarium to ED50 for Cassia obtusifolia; format: functional

Sequence of 15-cis-phytoene desaturase (P26294 whole entry): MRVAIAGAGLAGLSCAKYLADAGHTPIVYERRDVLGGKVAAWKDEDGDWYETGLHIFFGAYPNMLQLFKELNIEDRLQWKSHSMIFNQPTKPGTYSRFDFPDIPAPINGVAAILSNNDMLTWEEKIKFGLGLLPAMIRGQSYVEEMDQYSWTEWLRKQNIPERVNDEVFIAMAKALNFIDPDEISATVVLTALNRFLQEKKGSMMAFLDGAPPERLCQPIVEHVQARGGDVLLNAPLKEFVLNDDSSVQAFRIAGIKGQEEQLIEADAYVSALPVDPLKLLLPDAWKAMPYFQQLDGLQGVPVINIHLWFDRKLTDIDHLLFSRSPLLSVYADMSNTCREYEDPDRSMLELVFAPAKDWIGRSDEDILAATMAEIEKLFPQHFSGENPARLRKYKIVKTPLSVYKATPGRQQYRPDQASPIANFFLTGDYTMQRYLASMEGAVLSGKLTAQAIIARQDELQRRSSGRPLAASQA
Sequence of 15-cis-phytoene desaturase (Synechococcus elongatus (strain PCC 7942) (Anacystis nidulans R2)) (P26294 whole entry): as above

Row | SMILES | IC50 [1] [µM] | inhibition [2] | inhibition [3] | ED50 (Senna obtusifolia) [g/ha] | ED50 (Chenopodium album) [g/ha] | ED50 (Amaranthus retroflexus) [g/ha] | ED50 (Abutilon theophrasti) [g/ha] | ED50 (Xanthium strumarium) [g/ha] | ED50 (Ipomoea hederacea) [g/ha] | ED50 (Galium aparine) [g/ha] | Ratio ED50 [4] | Ratio ED50 [5] | Ratio ED50 [6]
1 | C[C@H]1CO[C@@H](Cc2cccc(C(F)(F)F)c2)C(=O)N1 | 3.8 |  |  | 1550 | 500 | 600 | 500 | 2300 | 1500 | 1500 |  |  | 
2 | C[C@H]1CO[C@H](Cc2cccc(C(F)(F)F)c2)C(=O)N1 | 0.17 | Active | Active | 200 | 25 | 50 | 50 | 340 | 130 | 130 |  |  | 
3 | C[C@@H]1CO[C@@H](Cc2cccc(C(F)(F)F)c2)C(=O)N1 | 19 |  |  | >10000 | >10000 | >10000 |  | >10000 | 4000 | 4000 |  |  | 
4 | CN1CCOC(c2cccc(C(F)(F)F)c2)C1=O (racemic) | > 100 |  |  | >10000 | 10000 | >10000 | 5500 | 9500 | >10000 | >10000 |  |  | 

The next lines start with results.

Row | IC50 [1] [µM] | inhibition [2] | inhibition [3] | SMILES | ED50 (Senna obtusifolia) [g/ha] | ED50 (Chenopodium album) [g/ha] | ED50 (Amaranthus retroflexus) [g/ha] | ED50 (Abutilon theophrasti) [g/ha] | ED50 (Xanthium strumarium) [g/ha] | ED50 (Ipomoea hederacea) [g/ha] | ED50 (Galium aparine) [g/ha] | Ratio ED50 [4] | Ratio ED50 [5] | Ratio ED50 [6]
5 | 3.2 |  |  | O=C1NCCOC1SCc1cccc(C(F)(F)F)c1 (racemic) | >10000 | >10000 | >10000 | >10000 | >10000 | >10000 | >10000 |  |  | 
6 | > 100 |  |  | CN1CCOC(Cc2cccc(C(F)(F)F)c2)C1=O (racemic) | 500 | 450 | 1250 | 1400 | 8900 | 500 | 500 | 15 | 15 | 15
7 | 6.5 |  |  | O=C1NCCOC1Cc1cccc(C(F)(F)F)c1 (racemic) | 350 | 140 | 80 | 150 | 800 | 380 | 380 |  |  | 
8 | 8.5 |  |  | O=C1NCCOC1Sc1cccc(C(F)(F)F)c1 (racemic) | 2500 | 850 | 780 | 1000 | >10000 | 4800 | 4800 |  |  | 
